# “Also recorded” adds a separate entry of the source.
# Key:
# [1] = test system: yucca mutant; format: in vivo, Arabidopsis thaliana
# [2] = test system: Arabidopsis WT and yucca mutants; format: in vivo, Arabidopsis thaliana; details: for sensitivity of yucca mutants to tryptophan analogs: yucca mutants compared with normal toxicity to plants
# Protocol: Enhanced expression of the YUCCA gene overproduces auxin. […] Massive root growth was observed when yucca explants grew in Murashige and Skoog (MS) media. Callus was induced by adding cytokinin, and young yucca plants that are regenerated in MS media containing cytokinin. A GUS reporter gene controlled by an auxin responsive element was expressed at much higher level in yucca. […] In addition, YUCCA appears to be involved in tryptophan-dependent auxin synthesis. […] In the presence of 100 μM 5-methyl tryptophan, WT plant material died while yucca survived.
# [3] = target: T1, recombinant YUCCA gene product (SEQ ID NO. 2) (Arabidopsis thaliana, UniProt Q9SZY8); assay: FMO activity assay of recombinant YUCCA gene product with tryptamine (TLC, mass spectroscopy); format: biochemical; details: 2 mM tryptamine, 1 mM NADP+, glucose-6-phosphate, glucose-6-phosphate dehydrogenase, 37° C.
# T1 construct: 2, was recovered from the E. coli overexpression system; made in house; host or cells: E. coli (vector pMalC2)
# T1 sequence (Q9SZY8 1-414): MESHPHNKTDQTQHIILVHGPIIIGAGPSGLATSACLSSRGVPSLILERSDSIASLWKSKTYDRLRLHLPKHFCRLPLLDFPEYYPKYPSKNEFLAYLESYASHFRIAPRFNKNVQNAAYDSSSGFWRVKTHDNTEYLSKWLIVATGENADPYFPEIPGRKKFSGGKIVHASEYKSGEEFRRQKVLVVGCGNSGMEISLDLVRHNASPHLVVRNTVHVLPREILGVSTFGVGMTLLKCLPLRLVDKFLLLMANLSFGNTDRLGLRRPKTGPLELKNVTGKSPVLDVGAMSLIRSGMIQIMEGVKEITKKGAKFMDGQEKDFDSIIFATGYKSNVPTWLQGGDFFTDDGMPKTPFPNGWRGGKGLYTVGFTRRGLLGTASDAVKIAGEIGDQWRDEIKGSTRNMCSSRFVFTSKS
# Excerpt: Enzymatic activity of the YUCCA gene product. In one experiment, the YUCCA gene was transformed into an E. coli overexpression vector and the recombinant YUCCA gene product, a polypeptide having the amino acid sequence of SEQ ID NO. 2, was recovered from the E. coli overexpression system. […] Thus, the amino acid sequence of SEQ ID NO: 2 can be used to metabolize tryptamine, whether endogenous or exogenous, as well as to generate N-hydroxyl tryptamine.
# Effect of YUCCA overexpression in E. coli on detectable FMO activity. To test the enzymatic activity of the YUCCA gene product, YUCCA (SEQ ID NO. 1) was transformed into an E. coli overexpression vector pMalC2 and the recombinant YUCCA gene product was recovered, using the method of Brunelle et al., (Drug Metab Dispos (1997) 25:1001). For activity assays, the recombinant YUCCA gene product was incubated with 2 mM tryptamine, 1 mM NADP^+, 1 mM glucose-6-phosphate, and glucose-6-phosphate dehydrogenase at 37° C. Reactions were stopped by adding an equal volume of methanol. Substrate and products were separated by thin-layer-chromatography (TLC) with CH2CL2/methanol/TEA (75:20:5). The product was eluted from TLC plates and mass spectroscopy was performed to determine the molecular mass of the product.
# [4] = test system: Arabidopsis WT and yucca mutants; assay: Auxin transport block by NPA in growth medium, club root development; format: in vivo, Arabidopsis thaliana
# Excerpt: It was also discovered that auxin transport in yucca was blocked by application of transport inhibitor naphthylthalamic acid (NPA), resulting in yucca mutants having a giant root, called a “club root” due to its thick, short appearance. This club root was substantially thicker than the regular yucca root, which is already thicker than the WT root. […] The club root produced by blocking auxin transport in yucca mutants may provide an important tool for studying root growth and development.
structure (smiles),measurement,setting,value
C=C [Ethylene],effect on the yucca mutant,[1]; ethylene treatment,little effect
N[C@@H](Cc1c[nH]c2ccc(F)cc12)C(=O)O [5-fluoro-tryptophan],sensitivity of yucca mutants to tryptophan analogs,[2],less sensitive
NCCc1c[nH]c2ccccc12 [tryptamine],substrate conversion by recombinant YUCCA gene product,[3],able to convert tryptamine to N-hydroxyl tryptamine; also recorded: use tryptamine as a substrate to generate N-hydroxyl tryptamine
"O=C(O)c1ccccc1C(=O)Nc1cccc2ccccc12 [NPA, naphthylthalamic acid]",club root development in wild type,[4]; Wild type (WT) Arabidopsis,did not develop a club root
same,club root development in yucca mutants,[4]; 50 μM in the growth medium,multiple club roots
same,club root development in yucca mutants,[4]; 100 μM in the growth medium,a single club root
Cc1ccc2[nH]cc(C[C@H](N)C(=O)O)c2c1 [5-methyl tryptophan],survival of WT plant material,"[2]; WT, in the presence of 100 μM",died
same,survival of yucca,"[2]; yucca mutant, in the presence of 100 μM",survived
same,sensitivity of yucca mutants to tryptophan analogs,[2],less sensitive
"NC1(C(=O)O)CC1 [ACC, 1-aminocyclopropane-1-carboxylate]",effect on yucca cotyledon,[1]; 5 μM,did not change the appearance of the yucca cotyledon
same,effect on yucca hypocotyl,[1]; 5 μM,suppressed the elongated yucca hypocotyl
